Experimental data: patent publication US20230338545A1 (SYRACUSE UNIVERSITY, priority 2020, published 2023)
“Also recorded” adds a separate entry of the source.

Columns and labels:
[1] = comparison value; cited from earlier work
[2] = test system: CaCo-2 cells; experiment: Cellular uptake of magnesium in CaCo-2 cells; format: cell-based, human; conditions: incubation time 1 hr, samples contain ~8% magnesium citrate
[3] = Solubility in water

CCc1occc(=O)c1O [ethylmaltol]
water solubility of free ligand [1]: 5.84 g/100 mL

magnesium maltol [Complex 1]
cellular uptake of magnesium [2]: substantial uptake of magnesium; also recorded: confirmed cellular entry

magnesium ethylmaltol [Complex 2]
solubility ([3]; Example 3 product): 26.8 g/100 mL H2O | solubility relative to that of the free ligand ([3]; complex vs. its ligand (maltol or ethylmaltol), water): approximately 4.9 × | solubility ([3]; triplicate independent runs): 28.4±0.86 g per 100 mL of H2O | cellular uptake of magnesium [2]: substantial uptake of magnesium; also recorded: slightly greater uptake than Complex 1; also recorded: confirmed cellular entry

Cc1occc(=O)c1O [maltol, 3-HYDROXY-2-METHYL-4H-PYRAN-4-ONE]
water solubility of free ligand [1]: 1.2 g/100 mL
